According to patent publication US7632819B1, “Methods and compositions for inhibiting PKC delta cleavage for treatment and prevention of neurodegeneration and apoptosis” (Iowa State University Research Foundation, Inc., priority 2004, dated 2009):
Where a SMILES comes first, the peptide text is derived from it. The star is where a group is joined. Cbz = O=C(OCc1ccccc1)*; CH2F = FC*

Assays:
[1] = test system: N27 mesencephalic neuronal cells; assay: MTT cytotoxicity assay, MPP+- and 6-OHDA-induced cytotoxicity; conditions: N27 cells, 100 μM 6-OHDA 24 hr, inhibitor 50 μM
From the text: (§1) Chemicals. Protease cocktail, ATP, protein-A-sepharose, protein-G-sepharose and anti-â-actin antibody were obtained from Sigma-Aldrich (St. Louis, Mo.); mouse tyrosine hydroxylase antibody was purchased from Chemicon (Temecula, Calif.); the rabbit polyclonal antibody for tyrosine hydroxylase was obtained from Calbiochem Bioscience, Inc. (King of Prussia, Pa.); rabbit PKCδ antibody was purchased from Santa Cruz Biotechnology, Inc. (Santa Cruz, Calif.); anti-rabbit and anti-mouse secondary antibodies and the ECL chemiluminescence kit were purchased from Amersham Pharmacia Biotech. (Piscataway, N.J.). Alexa 488 conjugated antirabbit/mouse, Cy3 conjugated anti-rabbit/mouse antibody and Hoechst 33342 were purchased from Molecular Probes, Inc. (Eugene, Oreg.). [ã-32P]ATP was purchased from Perkin Elmer Life Science Products (Boston, Mass.). The Bradford protein assay kit was purchased from Bio-Rad Laboratories (Hercules, Calif.). RPMI, fetal bovine serum, -glutamine, penicillin, and streptomycin were purchased from Invitrogen (Gaithersburg, Md.). Quantity One 4.2.0 software was purchased from Bio-Rad. Design and synthesis of z-DIPD-fmk (SEQ ID NO:5). To develop a cell permeable peptide inhibitor to specifically block PKCδ cleavage, we designed the tetrapeptide Asp-Ile-Pro-Asp (DIPD) (SEQ ID NO:5) corresponding to position 324-327 in rat PKCδ cDNA representing the caspase-3 cleavage site. Since this peptide is directed against the caspase-3 cleavage site of PKCδ, it should prevent the proteolytic cleavage and activation of PKCδ mediated by caspase-3. The custom synthesis of the tetrapeptide Z-Asp(OMe)-Ile-Pro-Asp(OMe)-FMK (SEQ ID NO:5) was performed at MP Biomedicals (Irvine, Calif.), a quality company that specializes in developing cell permeable peptide inhibitors directed against apoptosis cell signaling molecules. […]

[2] = test system: primary mesencephalic dopaminergic neuronal cells; assay: TH immunostaining, TH+ cell count and neuronal process length in primary mesencephalic cultures; assay type: cell-based, mouse
From the text: Chemicals. Protease cocktail, ATP, protein-A-sepharose, protein-G-sepharose and anti-â-actin antibody were obtained from Sigma-Aldrich (St. Louis, Mo.); mouse tyrosine hydroxylase antibody was purchased from Chemicon (Temecula, Calif.); the rabbit polyclonal antibody for tyrosine hydroxylase was obtained from Calbiochem Bioscience, Inc. (King of Prussia, Pa.); rabbit PKCδ antibody was purchased from Santa Cruz Biotechnology, Inc. (Santa Cruz, Calif.); anti-rabbit and anti-mouse secondary antibodies and the ECL chemiluminescence kit were purchased from Amersham Pharmacia Biotech. (Piscataway, N.J.). Alexa 488 conjugated antirabbit/mouse, Cy3 conjugated anti-rabbit/mouse antibody and Hoechst 33342 were purchased from Molecular Probes, Inc. (Eugene, Oreg.). [ã-32P]ATP was purchased from Perkin Elmer Life Science Products (Boston, Mass.). The Bradford protein assay kit was purchased from Bio-Rad Laboratories (Hercules, Calif.). RPMI, fetal bovine serum, -glutamine, penicillin, and streptomycin were purchased from Invitrogen (Gaithersburg, Md.). Quantity One 4.2.0 software was purchased from Bio-Rad. Design and synthesis of z-DIPD-fmk (SEQ ID NO:5). To develop a cell permeable peptide inhibitor to specifically block PKCδ cleavage, we designed the tetrapeptide Asp-Ile-Pro-Asp (DIPD) (SEQ ID NO:5) corresponding to position 324-327 in rat PKCδ cDNA representing the caspase-3 cleavage site. Since this peptide is directed against the caspase-3 cleavage site of PKCδ, it should prevent the proteolytic cleavage and activation of PKCδ mediated by caspase-3. The custom synthesis of the tetrapeptide Z-Asp(OMe)-Ile-Pro-Asp(OMe)-FMK (SEQ ID NO:5) was performed at MP Biomedicals (Irvine, Calif.), a quality company that specializes in developing cell permeable peptide inhibitors directed against apoptosis cell signaling molecules. Briefly, the synthesis was performed with the reaction of Boc-D(OMe)-OH with MBFM (Magnesium benzyl fluoromalonate) to produce Beta-Keto fluoroester, followed by hydrogenation with Pd/c to produce Boc-D(OMe)FK, which was converted into Tfa salt using trifluoroacetic acid. Coupling of Tfa salt with Z-D(OMe)—I—P—OH in DMF with HOBT, HBTU DIEA and workup produced a crude product which was purified by column chromatography over silica gel. Elution with EtOAC:MeOH 95:5 gave pure fractions which were mixed and dried. Crystallization with EtOAC/Hexane, filtration and drying produced the pure product. Animals. Time-pregnant C57/bL mice were housed under standard conditions: constant temperature (22±1° C.), humidity (relative, 30%) and a 12-h light/dark cycle with free access to food and water. The animals and protocol procedures were approved and supervised by the Committee on Animal Care (COAC) at Iowa State University. Cell culture. Rat mesencephalic dopaminergic neuronal (N27) cells were cultured as described earlier (Anantharam et al., 2002). Briefly, cells were grown in RPMI 1640 medium containing 10% fetal bovine serum, 2 mM L-glutamine, 50 units of penicillin, and 50 μg/ml streptomycin. Cells were maintained in a humidified atmosphere of 5% CO2 at 37° C. Primary mesencephalic neuronal cultures were prepared from the ventral mesencephalon of gestational 18-day-old mice embryos as described previously (Yang et al., 2004). Mesencephalic tissues were dissected and maintained in ice-cold Ca2+-free HBSS and then dissociated in HBSS solution containing trypsin-EDTA (0.25%) for 20 min at 37° C. The dissociated cells were then plated at equal density (0.5×10^6 cells) in 30-mm-diameter tissue culture wells pre-coated with poly-lysine (1 mg/ml). Cultures were maintained in a chemically defined, serum-free medium consisting of neurobasal medium fortified with B-27 supplements, L-glutamine (500 μM), penicillin (100 IU/ml), and streptomycin (100 μg/ml) (Life Technologies). The cells were maintained in a humidified CO2 incubator (5% CO2, 37° C.) for 24 hr and then treated with cytosine arabinoside (10 μM) for 24 hr to inhibit glial cell proliferation. […]

[3] = test system: PKCδ; assay: Western blot of PKCδ proteolytic cleavage in N27 cells; assay type: cell-based, rat
From the text: as §1

[4] = 10 μM MPP+ 24 hr, inhibitor 10 and 50 μM

CC[C@H](C)[C@H](NC(=O)[C@H](CC(=O)OC)NC(=O)OCc1ccccc1)C(=O)N1CCC[C@H]1C(=O)N[C@@H](CC(=O)OC)C(=O)CF [z-DIPD-fmk, Z-Asp(OMe)-Ile-Pro-Asp(OMe)-FMK] (Cbz-D(OMe)IPD(OMe)-CH2F)
protection against 6-OHDA-induced cell death (MTT) [1]: significantly protected
TH+ cell counts, protection against MPP+ neurotoxicity [2, 4]: nearly complete protection
average lengths of TH+ neuronal processes versus MPP+ only [2, 4]: significantly longer
TH+ cell counts, protection against 6-OHDA neurotoxicity ([2]; 30 μM 6-OHDA 24 hr, inhibitor 10 and 50 μM): nearly complete protection
rescue of tyrosine hydroxylase positive neurons from MPP+- and 6-OHDA-induced toxicity ([2]; mouse primary mesencephalic cultures): completely rescued
effect on 6-OHDA-induced degeneration of TH+ neurons and their processes ([2]; primary nigral cultures, 30 μM 6-OHDA 24 hr, inhibitor 10 and 50 μM): significantly blocked
effect on MPP+-induced degeneration of TH+ neurons and their processes ([2]; primary nigral dopaminergic neurons, 10 μM MPP+ 24 hr, inhibitor 10 and 50 μM): significantly blocked
effect on 6-OHDA-induced proteolytic cleavage of PKCδ ([3]; N27 cells, 100 μM 6-OHDA 24 hr, inhibitor 50 μM): significantly attenuated
effect on MPP+-induced proteolytic cleavage of PKCδ ([3]; N27 cells, 300 μM MPP+ 36 hr, inhibitor 50 μM): almost completely attenuated
effect on PKCδ cleavage and proteolytic activation in PD models ([3]; concentration not given): effectively blocked
